≈ marks a conversion by molar mass, not a printed value.
Columns and labels:
HeLa = assay: Cytotoxicity against human HeLa cells after 96 hrs by MTT assay; format: functional, cell-based
P388 = assay: Cytotoxicity against mouse P388 cells after 96 hrs by MTT assay; format: functional, cell-based; settings: P388, 96 h

Q: `CCCCCCCCCCCCCCCC/C=C(\Cl)CC/C=C\CCCC[C@@H]1OC[C@H](N)[C@@H]1O` [PENASIN B] was tested. Which IC50 (HeLa) did it give?
A: 10 mg/L (≈ 20.1 µM)

Q: And the IC50 (P388)?
A: 50 mg/L (≈ 100 µM)

Q: `CCCCCCCCCCCCCCCC/C=C\CC/C=C\CCCC[C@@H]1OC[C@H](N)[C@@H]1O` [PENASIN] was tested. Which IC50 (HeLa) did it give?
A: 10 mg/L (≈ 21.6 µM)

Q: What about the IC50 (P388) of the same compound?
A: 50 mg/L (≈ 108 µM)

From ChEMBL document CHEMBL1641389, “Penasins A-E, long-chain cytotoxic sphingoid bases, from a marine sponge Penares sp” (J Nat Prod, 2010)
